Test results reported in patent US20260297060A1, “COMPOUNDS FOR THE DEGRADATION OF MUTANT BRAF” (C4 THERAPEUTICS, INC., priority 2023, published 2026).
Read-outs that look alike come from different tables or passages of the source.

Molecular target: T1, BRAF V600E (Homo sapiens, UniProt P15056+Q96SW2, V600E)
T1 construct: knock-in of the HiBiT tag to the endogenous BRAF V600E locus; host or cells: A375.10 (A375 clonal line, CRISPR HiBiT knock-in at the endogenous BRAF V600E locus)
Assay: BRAF V600E HiBiT Degradation Assay
Type: cell-based
Procedure, shortened: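 Endogenous HiBiT knock-in on BRAF V600E in A375 cells (clone A375.10); 11-point half-log series, top 10 μM, 2, 6 or 24 h at 37° C. Lytic HiBiT luminescence, background-subtracted, normalized to DMSO; 4-parameter fit gives DC50, Emax (residual protein) and IP (inflection point).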

[1] = A375.10 cells, BRAF V600E, 2 hours, inflection point, read-out: HiBiT-Degradation A375.10 BRAF 2 hours IP
[2] = A375.10 cells, BRAF V600E, 2 hours, read-out: HiBiT-Degradation A375.10 BRAF 2 hours DC50
[3] = A375.10 cells, BRAF V600E, 6 hours, inflection point, read-out: HiBiT-Degradation A375.10 BRAF 6 hours IP
[4] = A375.10 cells, BRAF V600E, 6 hours, read-out: HiBiT-Degradation A375.10 BRAF 6 hours DC50
[5] = A375.10 cells, BRAF V600E, 6 hours, residual protein remaining, read-out: HiBiT-Degradation A375.10 BRAF 6 hours Emax
[6] = A375.10 cells, HiBiT, BRAF V600E, 24 hours, read-out: HiBiT-Degradation A375.10 BRAF 24 hours DC50
[7] = A375.10 cells, HiBiT, BRAF V600E, 24 hours, read-out: HiBiT-Degradation A375.10 BRAF 24 hours Emax
[8] = A375.10 cells, HiBiT, BRAF V600E, 24 hours, read-out: HiBiT-Degradation A375.10 BRAF 24 hours IP
[9] = read-out: HiBiT-Degradation A375.10 BRAF 2 hours Emax, A375.10 cells, BRAF V600E, 2 hours, residual protein remaining
[10] = read-out: HiBiT-Degradation A375.10 BRAF 2 hours DC50, A375.10 cells, BRAF V600E, 2 hours
[11] = read-out: HiBiT-Degradation A375.10 BRAF 2 hours IP, A375.10 cells, BRAF V600E, 2 hours, inflection point

T1 sequence (P15056 whole entry V600E): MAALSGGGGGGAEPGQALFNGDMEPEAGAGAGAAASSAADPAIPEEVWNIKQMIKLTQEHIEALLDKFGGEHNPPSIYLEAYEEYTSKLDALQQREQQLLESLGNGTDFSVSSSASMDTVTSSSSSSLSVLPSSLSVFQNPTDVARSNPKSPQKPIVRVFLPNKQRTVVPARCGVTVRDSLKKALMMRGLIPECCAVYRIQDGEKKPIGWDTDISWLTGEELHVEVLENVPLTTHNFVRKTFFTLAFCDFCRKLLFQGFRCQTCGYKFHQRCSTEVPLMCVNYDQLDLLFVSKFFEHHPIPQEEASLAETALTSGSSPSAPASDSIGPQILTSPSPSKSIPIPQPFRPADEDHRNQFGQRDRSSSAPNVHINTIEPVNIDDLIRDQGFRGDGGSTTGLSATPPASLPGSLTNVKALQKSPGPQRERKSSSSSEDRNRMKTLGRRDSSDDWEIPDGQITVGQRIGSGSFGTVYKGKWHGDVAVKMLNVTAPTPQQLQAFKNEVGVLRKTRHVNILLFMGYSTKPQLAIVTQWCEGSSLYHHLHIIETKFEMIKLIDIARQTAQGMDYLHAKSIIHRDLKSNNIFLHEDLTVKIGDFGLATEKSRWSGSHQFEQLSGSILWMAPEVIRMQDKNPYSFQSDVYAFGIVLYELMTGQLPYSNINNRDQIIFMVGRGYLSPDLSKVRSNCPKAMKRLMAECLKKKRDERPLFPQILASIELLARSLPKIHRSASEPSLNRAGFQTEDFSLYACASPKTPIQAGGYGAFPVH
T1 sequence (Q96SW2 whole entry): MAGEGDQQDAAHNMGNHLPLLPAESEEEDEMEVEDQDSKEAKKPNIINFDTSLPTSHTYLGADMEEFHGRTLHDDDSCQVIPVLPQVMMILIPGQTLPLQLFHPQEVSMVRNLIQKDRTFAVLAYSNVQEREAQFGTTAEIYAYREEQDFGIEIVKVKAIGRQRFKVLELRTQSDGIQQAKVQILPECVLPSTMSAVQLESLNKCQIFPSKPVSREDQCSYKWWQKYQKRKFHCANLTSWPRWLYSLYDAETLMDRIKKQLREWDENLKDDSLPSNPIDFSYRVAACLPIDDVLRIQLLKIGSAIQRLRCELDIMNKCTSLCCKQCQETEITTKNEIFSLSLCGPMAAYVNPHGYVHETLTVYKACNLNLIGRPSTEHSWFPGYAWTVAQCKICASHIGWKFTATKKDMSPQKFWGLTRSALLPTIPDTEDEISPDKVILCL
T1 sequence (Q16531 whole entry partner): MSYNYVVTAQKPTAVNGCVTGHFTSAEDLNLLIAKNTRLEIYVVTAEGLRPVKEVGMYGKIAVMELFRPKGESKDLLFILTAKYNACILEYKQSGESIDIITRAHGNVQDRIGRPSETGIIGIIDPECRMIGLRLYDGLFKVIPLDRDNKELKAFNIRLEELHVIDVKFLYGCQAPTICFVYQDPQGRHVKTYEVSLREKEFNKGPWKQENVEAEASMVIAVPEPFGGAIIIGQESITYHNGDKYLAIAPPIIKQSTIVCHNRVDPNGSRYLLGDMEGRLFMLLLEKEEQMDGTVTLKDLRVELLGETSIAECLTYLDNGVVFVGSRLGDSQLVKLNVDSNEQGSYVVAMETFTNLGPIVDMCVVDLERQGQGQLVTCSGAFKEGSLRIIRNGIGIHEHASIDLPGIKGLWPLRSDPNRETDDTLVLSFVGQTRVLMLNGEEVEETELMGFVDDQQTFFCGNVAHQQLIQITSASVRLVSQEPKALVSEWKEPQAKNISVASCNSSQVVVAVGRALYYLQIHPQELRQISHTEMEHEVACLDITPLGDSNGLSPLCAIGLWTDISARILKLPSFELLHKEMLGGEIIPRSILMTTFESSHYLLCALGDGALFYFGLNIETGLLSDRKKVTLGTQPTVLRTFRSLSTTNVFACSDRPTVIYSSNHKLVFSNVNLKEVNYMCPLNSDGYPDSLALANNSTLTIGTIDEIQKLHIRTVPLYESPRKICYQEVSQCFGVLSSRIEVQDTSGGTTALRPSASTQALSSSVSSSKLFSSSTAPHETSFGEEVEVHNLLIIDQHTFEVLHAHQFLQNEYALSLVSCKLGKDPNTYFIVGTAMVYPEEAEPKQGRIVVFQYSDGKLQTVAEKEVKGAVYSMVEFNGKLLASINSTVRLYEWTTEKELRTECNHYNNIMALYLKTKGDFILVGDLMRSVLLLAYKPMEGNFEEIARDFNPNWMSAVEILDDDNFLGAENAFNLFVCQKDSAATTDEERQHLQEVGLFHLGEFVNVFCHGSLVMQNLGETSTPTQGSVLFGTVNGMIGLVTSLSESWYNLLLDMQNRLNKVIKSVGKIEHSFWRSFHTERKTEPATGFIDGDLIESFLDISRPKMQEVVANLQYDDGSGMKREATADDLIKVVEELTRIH

Row | Structure (SMILES) | DC50 [1] | DC50 [2] | DC50 [3] | DC50 [4] | Emax [5] | DC50 [6] | Emax [7] | DC50 [8] | Emax [9] | DC50 [10] | DC50 [11]
1 | CCN(C)S(=O)(=O)Nc1ccc(F)c(Oc2ccc3ncc([C@H]4COC5(CCN(C6CC7(C6)CN(c6cc8c(cc6F)c(N6CCC(=O)NC6=O)nn8C)C7)CC5)C4)nc3c2)c1C#N [Compound 158, (3S)-3-[7-[2-cyano-3-[[ethyl(methyl)sulfamoyl]amino]-6-fluoro-phenoxy]quinoxalin-2-yl]-8-[2-[3-(2,4-dioxohexahydropyrimidin-1-yl)-5-fluoro-1-methyl-indazol-6-yl]-2-azaspiro[3.3]heptan-6-yl]-1-oxa-8-azaspiro[4.5]decane] | < 1 µM | 1 to 10 µM | – | – | – | – | – | – | 50 to 90% | – | –
2 | CCN(C)S(=O)(=O)Nc1ccc(F)c(Oc2ccc3ncc(C4CC5(CCN(C6CC7(C6)CN(c6cc8c(cc6F)c(N6CCC(=O)NC6=O)nn8C)C7)CC5)C4)nc3c2)c1C#N (stereo not drawn) [Compound 177, 7-[2-cyano-3-[[ethyl(methyl)sulfamoyl]amino]-6-fluoro-phenoxy]-2-[7-[2-[3-(2,4-dioxohexahydropyrimidin-1-yl)-5-fluoro-1-methyl-indazol-6-yl]-2-azaspiro[3.3]heptan-6-yl]-7-azaspiro[3.5]nonan-2-yl]quinoxaline] | < 1 µM | < 1 µM | < 1 µM | < 1 µM | < 50% | < 1 µM | < 50% | < 1 µM | < 50% | – | –
3 | CCN(C)S(=O)(=O)Nc1ccc(F)c(Oc2ccc3ncn(C4CC5(CCN(C6CC7(CCN(c8cc9c(cc8F)c(N8CCC(=O)NC8=O)nn9C)CC7)C6)CC5)C4)c(=O)c3c2)c1C#N (stereo not drawn) [Compound 198, 6-[2-cyano-3-[[ethyl(methyl)sulfamoyl]amino]-6-fluoro-phenoxy]-3-[7-[7-[3-(2,4-dioxohexahydropyrimidin-1-yl)-5-fluoro-1-methyl-indazol-6-yl]-7-azaspiro[3.5]nonan-2-yl]-7-azaspiro[3.5]nonan-2-yl]-4-oxo-quinazoline] | < 1 µM | < 1 µM | – | – | – | < 1 µM | < 50% | < 1 µM | < 50% | – | –
4 | Cn1nc(N2CCC(=O)NC2=O)c2cc(F)c(N3CC4(CC(N5CCC6(CC5)CC(n5cnc7ccc(Oc8c(F)ccc(NS(=O)(=O)C9CCCC9)c8C#N)cc7c5=O)C6)C4)C3)cc21 [Compound 250, N-[2-cyano-3-[3-[7-[2-[3-(2,4-dioxohexahydropyrimidin-1-yl)-5-fluoro-1-methyl-indazol-6-yl]-2-azaspiro[3.3]heptan-6-yl]-7-azaspiro[3.5]nonan-2-yl]-4-oxo-quinazolin-6-yl]oxy-4-fluoro-phenyl]cyclopentanesulfonamide] | < 1 µM | < 1 µM | – | – | – | – | – | – | < 50% | – | –
5 | Cn1nc(N2CCC(=O)NC2=O)c2cc(F)c(N3CC4(CC(N5CCC6(CC5)CC(n5cnc7ccc(Oc8c(F)ccc(NS(=O)(=O)C9CCC9)c8C#N)cc7c5=O)C6)C4)C3)cc21 [Compound 259, N-[2-cyano-3-[3-[7-[2-[3-(2,4-dioxohexahydropyrimidin-1-yl)-5-fluoro-1-methyl-indazol-6-yl]-2-azaspiro[3.3]heptan-6-yl]-7-azaspiro[3.5]nonan-2-yl]-4-oxo-quinazolin-6-yl]oxy-4-fluoro-phenyl]cyclobutanesulfonamide] | – | – | – | – | – | – | – | – | < 50% | < 1 µM | < 1 µM
6 | Cn1nc(N2CCC(=O)NC2=O)c2cc(F)c(N3CC4(CC(N5CCC6(CC5)CC(n5cnc7ccc(Oc8c(F)ccc(NS(=O)(=O)C9CC9)c8C#N)cc7c5=O)C6)C4)C3)cc21 [Compound 260, N-[2-cyano-3-[3-[7-[2-[3-(2,4-dioxohexahydropyrimidin-1-yl)-5-fluoro-1-methyl-indazol-6-yl]-2-azaspiro[3.3]heptan-6-yl]-7-azaspiro[3.5]nonan-2-yl]-4-oxo-quinazolin-6-yl]oxy-4-fluoro-phenyl]cyclopropanesulfonamide] | – | – | – | – | – | – | – | – | < 50% | < 1 µM | < 1 µM
7 | CC(C)S(=O)(=O)Nc1ccc(F)c(Oc2ccc3ncn(C4CC5(CCN(C6CC7(C6)CN(c6cc8c(cc6F)c(N6CCC(=O)NC6=O)nn8C)C7)CC5)C4)c(=O)c3c2)c1C#N (stereo not drawn) [Compound 273, N-[2-cyano-3-[3-[7-[2-[3-(2,4-dioxohexahydropyrimidin-1-yl)-5-fluoro-1-methyl-indazol-6-yl]-2-azaspiro[3.3]heptan-6-yl]-7-azaspiro[3.5]nonan-2-yl]-4-oxo-quinazolin-6-yl]oxy-4-fluoro-phenyl]propane-2-sulfonamide] | < 1 µM | < 1 µM | – | – | – | – | – | – | < 50% | – | –
8 | Cn1nc(N2CCC(=O)NC2=O)c2cc(F)c(N3CC4(CC(N5CCC6(CC5)CC(n5cnc7ccc(Oc8c(F)ccc(NS(=O)(=O)N9C[C@H]%10C[C@H]%10C9)c8C#N)cc7c5=O)C6)C4)C3)cc21 (stereo partly drawn) [Compound 277, (1R,5S)-N-[2-cyano-3-[3-[7-[2-[3-(2,4-dioxohexahydropyrimidin-1-yl)-5-fluoro-1-methyl-indazol-6-yl]-2-azaspiro[3.3]heptan-6-yl]-7-azaspiro[3.5]nonan-2-yl]-4-oxo-quinazolin-6-yl]oxy-4-fluoro-phenyl]-3-azabicyclo[3.1.0]hexane-3-sulfonamide] | < 1 µM | < 1 µM | – | – | – | – | – | – | < 50% | – | –

Now from value to molecule:

Row | DC50 [1] | DC50 [2] | DC50 [3] | DC50 [4] | Emax [5] | DC50 [6] | Emax [7] | DC50 [8] | Emax [9] | DC50 [10] | DC50 [11] | Structure (SMILES)
9 | < 1 µM | < 1 µM | < 1 µM | < 1 µM | < 50% | < 1 µM | < 50% | < 1 µM | 50 to 90% | – | – | CO[C@H]1CCN(S(=O)(=O)Nc2ccc(F)c(Oc3ccc4ncn([C@H]5COC6(CCN(C7CC8(C7)CN(c7cc9c(cc7F)c(N7CCC(=O)NC7=O)nn9C)C8)CC6)C5)c(=O)c4c3)c2C#N)C1 [Compound 157, (3S)-N-[2-cyano-3-[3-[(3R)-8-[2-[3-(2,4-dioxohexahydropyrimidin-1-yl)-5-fluoro-1-methyl-indazol-6-yl]-2-azaspiro[3.3]heptan-6-yl]-1-oxa-8-azaspiro[4.5]decan-3-yl]-4-oxo-quinazolin-6-yl]oxy-4-fluoro-phenyl]-3-methoxy-pyrrolidine-1-sulfonamide]
10 | – | – | – | – | – | – | – | – | 50 to 90% | 1 to 10 µM | < 1 µM | COC1CN(S(=O)(=O)Nc2ccc(F)c(Oc3ccc4ncn([C@H]5COC6(CCN(C7CC8(C7)CN(c7cc9c(cc7F)c(N7CCC(=O)NC7=O)nn9C)C8)CC6)C5)c(=O)c4c3)c2C#N)C1 [Compound 246, N-[2-cyano-3-[3-[(3R)-8-[2-[3-(2,4-dioxohexahydropyrimidin-1-yl)-5-fluoro-1-methyl-indazol-6-yl]-2-azaspiro[3.3]heptan-6-yl]-1-oxa-8-azaspiro[4.5]decan-3-yl]-4-oxo-quinazolin-6-yl]oxy-4-fluoro-phenyl]-3-methoxy-azetidine-1-sulfonamide]
11 | < 1 µM | < 1 µM | – | – | – | – | – | – | 50 to 90% | – | – | Cn1nc(N2CCC(=O)NC2=O)c2cc(F)c(N3CC4(CC(N5CCC6(CC5)C[C@@H](n5cnc7ccc(Oc8c(F)ccc(NS(=O)(=O)N9CC%10(CCC%10)C9)c8C#N)cc7c5=O)CO6)C4)C3)cc21 [Compound 254, N-[2-cyano-3-[3-[(3R)-8-[2-[3-(2,4-dioxohexahydropyrimidin-1-yl)-5-fluoro-1-methyl-indazol-6-yl]-2-azaspiro[3.3]heptan-6-yl]-1-oxa-8-azaspiro[4.5]decan-3-yl]-4-oxo-quinazolin-6-yl]oxy-4-fluoro-phenyl]-2-azaspiro[3.3]heptane-2-sulfonamide]
12 | – | – | – | – | – | – | – | – | < 50% | < 1 µM | < 1 µM | Cn1nc(N2CCC(=O)NC2=O)c2cc(F)c(N3CC4(CC(N5CCC6(CC5)CC(n5cnc7ccc(Oc8c(F)ccc(NS(=O)(=O)N9CC[C@@H](F)C9)c8C#N)cc7c5=O)C6)C4)C3)cc21 [Compound 261, (3R)-N-[2-cyano-3-[3-[7-[2-[3-(2,4-dioxohexahydropyrimidin-1-yl)-5-fluoro-1-methyl-indazol-6-yl]-2-azaspiro[3.3]heptan-6-yl]-7-azaspiro[3.5]nonan-2-yl]-4-oxo-quinazolin-6-yl]oxy-4-fluoro-phenyl]-3-fluoro-pyrrolidine-1-sulfonamide]
